Test system: wild type cells
Assay: Reduction of cholesterol levels in wild type cells
Type: cell-based
Conditions: with increasing concentration, FIG. 1A
Protocol: The half maximal effective concentration (EC-50) for delta-tocopherol and five analogues was measured in wild type and NPC 3123 cells. […] Further, in NPC cells (FIG. 1B), the cholesterol level drop was substantial relative to the control (no delta-tocopherol).

## Cc1cc(O)cc2c1O[C@](C)(CCC[C@H](C)CCC[C@H](C)CCCC(C)C)CC2 [delta-tocopherol]
  cholesterol levels in wild type cells: cholesterol levels dropped

Source: patent US10370348B2, “Tocopherol and tocopheryl quinone derivatives as correctors of lysosomal storage disorders” (The United States of America, as represented by the …, priority 2012, dated 2019)
